This note sets out measurements from patent US5278171A, “Azadecalin amides and thioamides as inhibitors of cholesterol biosynthesis” (Merrell Dow Pharmaceuticals Inc., priority 1991, dated 1994).

The subject of assay [1] is Oxidosqualene Cyclase in HepG2 Cells. Description: Inhibition of Oxidosqualene Cyclase in HepG2 Cells (IC50 for the inhibition of [14C]cholesterol biosynthesis). Format: cell-based. The settings on record: Homo sapiens, read-out: IC50 HepG2 Cell. As for the experimental part:
1. Inhibition of Oxidosqualene Cyclase in HepG2 Cells (IC50)
HepG2 cells, obtained from American Type Culture Collection, are seeded into plastic 6-well multiwell dishes and grown to 60-70% confluency in an atmosphere of 5%CO2 at 37° C. using Minimal Essential Media supplemented with 10% fetal bovine serum as culture media. The cells are washed and the media is replaced with one containing 10% lipoprotein-deficient serum instead of 10% fetal bovine serum. Twenty-four hours later the test compound is added to the culture media in ethanol to obtain concentrations of between 0 and 100 μM. One hour after the addition of the test compound, 2.0 μC of [^14 C]acetate is added to each well and the cells are allowed to incubate for an additional 2-3 hours. The cells are then harvested and extracted for analysis of ^14 C-labeled cholesterol, squalene monoepoxide and squalene diepoxide. These metabolites are separated and identified by a combination of high performance liquid chromatography and flow-through liquid scintillation spectroscopy. An IC50 for the inhibition of [^14 C]cholesterol biosynthesis is calculated based on the radioactivity in controls and treated cells.

Assay [2] deals with Oxidosqualene cyclase. The assay can be described thus: Inhibition of Purified Oxidosqualene Cyclase (I10). Format: biochemical. The settings on record: purified oxidosqualene cyclase from rat liver microsomes, 10 μM [3H]squalene monoepoxide, pH 7.4, 37° C., 40 minutes.
Procedure: Oxidosqualene cyclase is purified from rat liver microsomes by the sequential methods of: 1) solubilization with the detergent lauryl maltoside and 2) FPLC anion-exchange chromatography. Compounds are tested to determine their ability to inhibit the conversion of squalene monoepoxide to lanosterol catalyzed by the purified oxidosqualene cyclase. The reaction mixture (final volume, 200 μl) contains potassium phosphate buffer (50 mM, pH 7.4), Na2 EDTA (500 μM), Tween 80 (0.1%), [^3 H]squalene monoepoxide (10 μM of the racemic mixture, 50 μCi/μmol), test compound (10 μM) and purified oxidosqualene cyclase (50μg). The reagents, prior to mixing are equilibrated at 37° C. for 10 minutes. The reaction is initiated by adding enzyme. The mixture is incubated for 40 minutes with shaking in a water bath. The reaction is terminated by the addition of 5 ml of CHCl3 /MeOH (2:1, v/v), 0.8 ml of water and 10 μg each of squalene monoepoxide, squalene diepoxide, lanosterol and cholesterol. The organic layer is isolated and evaporated to dryness under nitrogen. […] Radioactivity is quantitated using an in-line scintillation counter.

As for `CC(C)CCSCCCCC(=O)N1CC[C@H]2[C@H](C)[C@@H](O)CC[C@]2(C)C1` (relative stereo) [Example 100905, N-[1-Oxo-5-(3-methylbutylmercapto)pentyl]-8-aza-4α,10-dimethyl-trans-decal-3β-ol], in assay [1], the IC50 worked out at 52 µM. Moreover, the “I10 purified enzyme (percent inhibition of oxidosqualene cyclase activity at 10 μM test compound)” value in assay [2] is on record as 100%. `CCCCCCCCCCCC(=O)N1CC[C@H]2[C@H](C)[C@@H](O)CC[C@]2(C)C1` (relative stereo) [Example 102417, N-(1-Oxododecyl)-8-aza-4α,10-dimethyl-trans-decal-3β-ol]: the half-maximal inhibitory concentration (IC50) in assay [1] was found to be 0.7 µM.
